Source: US20110275673A1, “INHIBITORS OF SPHINGOSINE KINASE 1” (priority 2008, published 2011)
Where a name gives a salt, the structure may show the parent alone.

Target: T1, SPHK-1 (Homo sapiens, UniProt Q9NYA1)
T1 construct: purchased BPS Bioscience
Assay: Reporter Assay: sphingosine kinase conversion of fluorescein-labeled sphingosine, read on Lab Chip 3000
Format: biochemical
Details: 2 μM Fl-sphingosine, 25 μM ATP, 300 ng/ml SK1, 1 hour at room temperature; from percent conversion of substrate to product; read-out: SPHK-1 IC50 (n =)
Description: Sphingosine kinase is a 49 kDa enzyme that catalyzes the formation of sphingosine-1-phosphate (S-1-P) from sphingosine.
Fluorescein labeled sphingosine was obtained from Echelon Biosciences (S-100F). Buffer reagents (1 M Hepes, 10 triton x-100, 100% glycerol, dithiothreitol 1 M MgCl2, ATP, 500 mM EDTA and DMSO) were purchased from Sigma. Coating reagent (CR-3), was obtained from Caliper Life Sciences.
0.05% Triton X-100, 2.5% glycerol, 0.1% CR-3, and 0,6% DMSO. Termination butler included 100 mM Hepes (pH 7.5), 40 mM EDTA, 0.05% Triton X-100, 2.5% glycerol, 0.3% CR-3, and 0.6% DMSO.
All assay components were made in reaction buffer. […] The assaylvas allowed to incubate at room temperature sealed and protected from light for 1 hour.
After 1 hour, 10 μl of termination buffer was added to terminate, the reaction, and the plate was read on a Lab Chip 3000. The plate was read for one cycle. The Lab Chip separated substrate and product based on charge.
Results were calculated based on percent conversion of substrate to product using the following formula: […]
Percent inhibition and IC50's for compounds of the invention were determined using the percent conversion values obtained horn the Lab Chip.

T1 sequence (Q9NYA1 whole entry): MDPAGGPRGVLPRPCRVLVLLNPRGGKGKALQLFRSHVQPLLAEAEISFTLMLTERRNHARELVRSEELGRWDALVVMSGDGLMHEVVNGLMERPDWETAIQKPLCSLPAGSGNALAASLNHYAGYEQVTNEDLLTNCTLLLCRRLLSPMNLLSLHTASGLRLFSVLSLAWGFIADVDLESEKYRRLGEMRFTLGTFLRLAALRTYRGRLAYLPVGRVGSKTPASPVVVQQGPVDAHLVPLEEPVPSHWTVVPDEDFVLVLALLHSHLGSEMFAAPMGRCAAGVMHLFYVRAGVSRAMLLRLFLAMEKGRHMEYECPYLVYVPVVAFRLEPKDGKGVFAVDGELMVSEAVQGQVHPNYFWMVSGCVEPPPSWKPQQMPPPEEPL

SMILES	IC50
CCCCCCCCc1ccc(NC(=O)[C@H]([C@H](C)O)N(Cc2ccccc2)Cc2ccccc2)cc1 [Example 49, (2S,3S)-2-(dibenzyl-amino)-3-hydroxy-N-(4-octylphenyl) butanamide]	> 1000 nM
O=C(Nc1ccc(CCCC2CCCCC2)cc1)[C@H]1NCC[C@@H]1O [Example 50, (2S,3S)-N-(4-(3-cyclohexyl-propyl)phenyl)-3-hydroxy-pyrrolidine-2-carboxamide]	950 nM
CCCCCCCCc1ccc(NC(=O)[C@H](CO)NC)cc1 [Example 51, (S)-3-Hydroxy-2-(methylamino)-N-(4-octylphenyl) propanamide]	2800 nM
CCCCCCCCc1ccc(NC(=O)[C@@H](N)CCCCO)cc1 [Example 52, (S)-2-Amino-6-hydroxy-N-(4-octylphenyl) hexanamide]	4000 nM
CCCCCCCCc1ccc(O)c(NC(=O)[C@H]2NCC[C@@H]2O)c1 [Example 58, hydrochloride]	3600 nM
CCCCCCCCc1ccc(-c2ccc(NC(=O)[C@@H](N)[C@@H](C)O)cc2)cc1 [Example 59, (2S,3R)-2-Amino-3-hydroxy-N-(4′-octylbiphenyl-4-yl)butanamide]	1100 nM
CCCCCCCCc1ccc(-c2ccc(NC[C@@H](N)[C@@H](C)O)cc2)cc1 [Example 60, (2R,3R)-3-Amino-4-(4′-octylbiphenyl-4-ylamino)butan-2-ol]	2300 nM
CCCCCCCc1nc(-c2ccc3c(c2)CC[C@H]3NC(=O)[C@H]2NCC[C@@H]2O)no1 [Example 61]	6900 nM
CCCCCCCc1nc(-c2ccc3c(c2)CC[C@@H]3NC(=O)[C@H]2NCC[C@@H]2O)no1 [Example 62, (2S,3S)—N—((S)-5-(5-heptyl-1,2,3-oxadiazol-3-yl)-2,3-dihydro-1H-inden-1-yl)-3-hydroxypyrrolidine-2-carboxamide]	60 nM
Cn1nc(-c2ccc(CNC(=O)[C@H]3NCC[C@@H]3O)cc2)nc1C1CCCCC1 [Example 63, (2S,3S)—N-(4-(5-Cyclohexyl-1-methyl-1H-1,2,4-triazol-3-yl)benzyl)-3-hydroxypyrrolidine-2-carboxamide]	2100 nM
O=C(NCc1ccc(-n2cc(CCc3ccccc3)nn2)cc1)[C@H]1NCC[C@@H]1O [Example 65, (2S,3S)-3-Hydroxy-N-(4-(4-phenethyl-1H-1,2,3-triazol-1-yl)benzyl)pyrrolidine-2-carboxamide]	1600 nM
CC[C@H](NC(=O)[C@H]1NCC[C@@H]1O)c1ccc(-n2cc(CCc3ccccc3)nn2)cc1 [Example 66, (2S,3S)-3-Hydroxy-N—((S)-1-(4-(4-phenethyl-1H-1,2,3-triazol-1-yl)phenyl)propyl)pyrrolidine-2-carboxamide]	140 nM
O=C(NCc1ccc(-n2cc(CCC3CCCCC3)nn2)cc1)[C@H]1NCC[C@@H]1O [Example 67, (2S,3S)-(4-(4-(2-Cyclohexylethyl)-1H-1,2,3-triazol-1-yl)benzyl)-3-hydroxypyrrolidine-2-carboxamide]	290 nM
O=C(NCc1ccc(-n2cc(CCc3ccc(F)cc3)nn2)cc1)[C@H]1NCC[C@@H]1O [Example 68, (2S,3S)—N-(4-(4-(4-Fluorophenethyl)-1H-1,2,3-triazol-1-yl)benzyl)-3-hydroxypyrrolidine-2-carboxamide]	7300 nM
O=C(NCc1ccc(-n2cc(CCc3ccccc3)cn2)cc1)[C@H]1NCC[C@@H]1O [Example 69, (2S,3S)-3-Hydroxy-N-(4-(4-phenethyl-1H-pyrazol-1-yl)benzyl)pyrrolidine-2-carboxamide]	65 nM
CCCCCCCc1ccc(-c2noc(CNC(=O)[C@H]3NCC[C@@H]3O)n2)cc1 [Example 77, (2S,3S)—N-((3-(4-Heptylphenyl)-1,2,4-oxadiazol-5-yl)methyl)-3-hydroxypyrrolidine-2-carboxamide]	220 nM
CC(C)Cc1ccc(-c2nc(-c3ccc(CNC(=O)[C@H]4NCC[C@@H]4O)cc3)no2)cc1 [Example 78, (2S,3S)-3-Hydroxy-N-(4-(5-(4-isobutylphenyl)-1,2,4-oxadiazol-3-yl)benzyl)pyrrolidine-2-carboxamide]	4400 nM
CCCc1ccc(-c2nc(-c3ccc(CNC(=O)[C@H]4NCC[C@@H]4O)cc3)no2)cc1 [Example 81, (2S,3S)-3-Hydroxy-N-(4-(5-(4-propylphenyl)-1,2,4-oxadiazol-3-yl)benzyl)pyrrolidine-2-carboxamide]	1800 nM
CCCCc1ccc(-c2nc(-c3ccc(CNC(=O)[C@H]4NCC[C@@H]4O)cc3)no2)cc1 [Example 82, (2S,3S)—N-(4-(5-(4-Butylphenyl)-1,2,4-oxadiazol-3-yl)benzyl)-3-hydroxypyrrolidine-2-carboxamide]	3700 nM

SMILES	IC50
CCCCCCCc1nc(-c2ccc(CNC(=O)[C@@H](N)CCO)cc2)no1 [Example 83, (S)-2-Amino-N-(4-(5-heptyl-1,2,4-oxadiazol-3-yl)benzyl)-4-hydroxybutanamide]	600 nM
O=C(NCc1ccc(-c2noc(C3CCC(F)(F)CC3)n2)cc1)[C@H]1NCC[C@@H]1O [Example 92, (2S,3S)—N-(4-(5-(4,4-Difluorocyclohexyl)-1,2,4-oxadiazol-3-yl)benzyl)-3-hydroxypyrrolidine-2-carboxamide]	6400 nM
CC[C@H](NC(=O)[C@H]1NCC[C@@H]1O)c1ccc(-c2noc(C3CCCCC3)n2)cc1 [Example 99, (2S,3S)—N—((S)-1-(4-(5-Cyclohexyl-1,2,4-oxadiazol-3-yl)phenyl)propyl)-3-hydroxypyrrolidine-2-carboxamide hemi-tartrate salt]	130 nM
C[C@H](NC(=O)[C@H]1NCC[C@@H]1O)c1ccc(-c2noc(CCC3CCC3)n2)cc1 [Example 100, (2S,3S)—N—((S)-1-(4-(5-(2-Cyclobutylethyl)-1,2,4-oxadiazol-3-yl)phenyl)ethyl)-3-hydroxypyrrolidine-2-carboxamide hemi tartrate salt]	59 nM
CCCCCCCc1ccc(-c2ccc(NC(=O)[C@@H](N)[C@@H](C)O)cc2)nc1 [Example 101, (2S,3R)-2-amino-N-(4-(5-heptylpyridin-2-yl)phenyl)-3-hydroxybutanamide]	900 nM
CCCCCCCc1noc(-c2ccc(CNC(=O)[C@@H]3C[C@@H](O)CCN3)cc2)n1 [Example 102, (2S,4S)—N-(4-(3-heptyl-1,2,4-oxadiazol-5-yl)benzyl)-4-hydroxypiperidine-2-carboxamide]	2700 nM
CCCCCCCCc1nc(-c2ccc(CNC(=O)[C@H]3NCC[C@@H]3O)cc2)cs1 [Example 103, (2S,3S)-3-hydroxy-N-(4-(2-octylthiazol-4-yl)benzyl)pyrrolidine-2-carboxamide]	49 nM
CCCCCCCc1ccc(-c2ccc(NC(=O)[C@H]3NCC[C@@H]3O)cc2)nc1 [Example 104, (2S,3S)—N-(4-(5-heptylpyridin-2-yl)phenyl)-3-hydroxypyrrolidine-2-carboxamide]	1600 nM
CCCCCCCCc1cnc(-c2ccc(CNC(=O)[C@H]3NCC[C@@H]3O)cc2)s1 [Example 106, (2S,3S)-3-hydroxy-N-(4-(5-octylthiazol-2-yl)benzyl)pyrrolidine-2-carboxamide]	70 nM
CCCCCCCCc1cc2cc(CNC(=O)[C@H]3NCC[C@@H]3O)ccc2o1 [Example 107, (2S,3S)-3-Hydroxy-N-((2-octylbenzofuran-5-yl)methyl)pyrrolidine-2-carboxamide]	31 nM
CCCCCCCCc1cc2cc(CNC(=O)[C@H]3NCC[C@@H]3O)ccc2[nH]1 [Example 108, (2S,3S)-3-Hydroxy-N-((2-octyl-1H-indol-5-yl)methyl)pyrrolidine-2-carboxamide]	9400 nM
CCCCCCCCc1cc2cc(CNC(=O)[C@H]3NCC[C@@H]3O)ccc2n1C [Example 109, (2S,3S)-3-Hydroxy-N-((1-methyl-2-octyl-1H-indol-5-yl)methyl)pyrrolidine-2-carboxamide]	300 nM
O=C(NCc1ccc2oc(CCCOc3ccc(F)cc3)cc2c1)[C@H]1NCC[C@@H]1O [Example 110, (2S,3S)—N-((2-(3-(4-Fluorophenoxy)propyl)benzofuran-5-yl)methyl)-3-hydroxypyrrolidine-2-carboxamide]	5200 nM
O=C(NCc1ccc2oc(CCOc3ccc(F)cc3)cc2c1)[C@H]1NCC[C@@H]1O [Example 111, (2S,3S)—N-((2-(2-(4-Fluorophenoxy)ethyl)benzofuran-5-yl)methyl)-3-hydroxypyrrolidine-2-carboxamide]	5000 nM
CCCCCCCCc1cc2ccc(CNC(=O)[C@H]3NCC[C@@H]3O)cc2o1 [Example 112, (2S,3S)-3-Hydroxy-N-((2-octylbenzofuran-6-yl)methyl)pyrrolidine-2-carboxamide]	490 nM
CCCCCCCc1cc2cc(CNC(=O)[C@H]3NCC[C@@H]3O)ccc2o1 [Example 113, (2S,3S)—N-((2-Heptylbenzofuran-5-yl)methyl)-3-hydroxypyrrolidine-2-carboxamide]	160 nM
CCCCCCc1cc2cc(CNC(=O)[C@H]3NCC[C@@H]3O)ccc2o1 [Example 114, (2S,3S)—N-((2-Hexylbenzofuran-5-yl)methyl)-3-hydroxypyrrolidine-2-carboxamide]	530 nM
O=C(NCc1ccc2oc(C3CCCCC3)cc2c1)[C@H]1NCC[C@@H]1O [Example 115, (2S,3S)—N-((2-Cyclohexylbenzofuran-5-yl)methyl)-3-hydroxypyrrolidine-2-carboxamide]	1200 nM
